From patent US12594267B2, “Capsid inhibitors for the treatment of HIV” (Gilead Sciences, Inc., priority 2018, dated 2026)

Assay: PK after subcutaneous administration of solutions in dogs
Format: in vivo, Beagle dog
Method: Formulations containing the compound of Formula (Ia) were prepared as aqueous solutions or oral formulations and administered subcutaneously to rats, dogs, cynomolgus monkey, and/or rhesus monkey.
A solution of the compound of Formula (Ia) in 10% ethanol, 13% water, and 77% PEG 200 (400 mg/mL) was prepared. The solution was administered subcutaneously to dogs at a dose of 12 mg/kg and rats at a dose of 50 mg/kg and the pharmacokinetic (PK) profile was determined. […] In both species, plasma concentrations of the compound of Formula (Ia) were maintained above the target trough concentration of 20 nM (corresponding to an IQ of 5) for at least 84 days (12 weeks).
A solution of the compound of Formula (Ia) in 15% water and 85.0 PEG 300 (400 mg/mL) was prepared. The solution was administered subcutaneously to male beagle dogs at a dose level of 12 mg/kg and dose volume of […] and the pharmacokinetic (PK) profile was determined.
A solution of the compound of Formula (a) sodium salt in water and 300 (300 mg/mL) was prepared that contained 22.6% water/50% PEG 300/1.1% NaOH/26.3% Formula (Ia). The solution was administered subcutaneously to male beagle dogs at a dose level of 12 mg/kg and dose volume of […] and the pharmacokinetic (PK) profile was determined.
A 300 mg/ml solution of a compound of Formula (Ia) having 9.8 w/w % water, 65.0 w/w % PEG 300, and 25.2 w/w % of the compound of Formula (Ia) was prepared. The solution was administered subcutaneously to rats at a dose of 50 mg/kg and to dogs at a dose of 12 mg/kg and the pharmacokinetic (PK) profile was determined. […] In the rat, plasma concentrations of the compound of Formula (Ia) were maintained above the target trough concentration of 20 nM for at least 168 days (24 weeks). In the dog, plasma concentrations of the compound of Formula (Ia) were maintained above the target trough concentration of 20 nM for at least 84 days (12 weeks).
(§1) A 150 mg/ml solution of a compound of Formula (Ia) having 27.92 w/w % water, 58.04 w/w % PEG 300, 13.47 w/w % of a compound of Formula (Ia), and 1.1 w/w % NaOH was prepared. The solution was administered subcutaneously to rats at a dose of 50 mg/kg and to dogs at a dose of 12 mg/kg and the pharmacokinetic (PK) profile was determined. […] In the rat, plasma concentrations of the compound of Formula (Ia) were maintained above the target trough concentration of 20 nM for at least 126 days (18 weeks). In the dog, plasma concentrations of the compound of Formula (Ia) were maintained above the target trough concentration of 20 nM for at least 56 days (8 weeks).
as §1, with “300” for “150”, “23.2” for “27.92”, “50.0” for “58.04”, “25.7” for “13.47”
A 50 mg/ml solution of a compound of Formula (Ia) having 30.07 w/w % water, 64.40 w/w % PEG 300, 4.68 w/w % of a sodium salt of the compound of Formula (Ia), and 0.85 w/w % poloxamer 188 was prepared. The solution was administered subcutaneously to rats at a dose of 50 mg/kg and to dogs at a dose of 6 mg/kg and the pharmacokinetic (PK) profile was determined. […] In the rat, plasma concentrations of the compound of Formula (Ia) were maintained above the target trough concentration of 20 nM for at least 28 days (4 weeks). In the dog, plasma concentrations of the compound of Formula (Ia) were maintained above the target trough concentration of 20 nM for at least 14 days (2 weeks). […]

[1] = beagle, dog, plasma, sc, 12 mg/kg, SC 12 mg/kg, 400 mg/mL solution in 10% ethanol, 13% water, 77% PEG 200, mean ± SD, n=3
[2] = dog, SC 12 mg/kg, 150 mg/mL solution (w/w %: 27.92 water, 58.04 PEG 300, 13.47 Formula (Ia), 1.1 NaOH), mean ± SD, n=3

Question: What does the source list for `CC(C)(C#Cc1ccc(-c2ccc(Cl)c3c(NS(C)(=O)=O)nn(CC(F)(F)F)c23)c([C@H](Cc2cc(F)cc(F)c2)NC(=O)Cn2nc(C(F)(F)F)c3c2C(F)(F)[C@@H]2C[C@H]32)n1)S(C)(=O)=O` [Formula (Ia), N—((S)-1-(3-(4-chloro-3-(methylsulfonamido)-1-(2,2,2-trifluoroethyl)-1H-indazol-7-yl)-6-(3-methyl-3-(methylsulfonyl)but-1-yn-1-yl)pyridin-2-yl)-2-(3,5-difluorophenyl)ethyl)-2-((3bS,4aR)-5,5-difluoro-3-(trifluoromethyl)-3b,4,4a,5-tetrahydro-1H-cyclopropa[3,4]cyclopenta[1,2-c]pyrazol-1-yl)acetamide]?
Answer: AUC(0-t) (beagle, dog, plasma, sc, 12 mg/kg, dog, SC 12 mg/kg, 400 mg/mL solution in 10% ethanol, 13% water, 77% PEG 200, mean ± SD, n=3, read-out: AUC0-140d): 111 ± 14 µM·h; concentration at 84 d (beagle, dog, plasma, sc, 12 mg/kg, dog, SC 12 mg/kg, 400 mg/mL solution in 10% ethanol, 13% water, 77% PEG 200, mean ± SD, n=3, read-out: C84d): 23.4 ± 5.7 nM; Cmax [1]: 107 ± 13 nM; Tmax [1]: 14 days; Plasma concentration (dog #1, 0 h, SC 12 mg/kg, 400 mg/mL in 15% water/85% PEG 300): BLQ; Plasma concentration (dog #1, 1.0 h, SC 12 mg/kg, 400 mg/mL in 15% water/85% PEG 300): BLQ; Plasma concentration (dog #2, 0 h, SC 12 mg/kg, 400 mg/mL in 15% water/85% PEG 300): BLQ; Plasma concentration (dog #3, 0 h, SC 12 mg/kg, 400 mg/mL in 15% water/85% PEG 300): BLQ; Time plasma concentrations maintained above the target trough concentration of 20 nM (dog, SC 6 mg/kg, 50 mg/mL solution (w/w %: 30.07 water, 64.40 PEG 300, 4.68 sodium salt of Formula (Ia), 0.85 poloxamer 188)): at least 14 days; Time plasma concentrations maintained above the target trough concentration of 20 nM (dog, SC 6 mg/kg, 75 mg/mL solution (w/w %: 29.21 water, 62.55 PEG 300, 6.97 sodium salt of Formula (Ia), 1.68 poloxamer 188)): at least 21 days; Time plasma concentrations maintained above the target trough concentration of 20 nM (dog, SC 6 mg/kg, 100 mg/mL solution (w/w %: 28.36 water, 60.73 PEG 300, 9.23 sodium salt of Formula (Ia), 1.68 poloxamer 188)): at least 14 days; AUC0-14d (dog, SC 6 mg/kg, 100 mg/mL solution (w/w %: 28.36 water, 60.73 PEG 300, 9.23 sodium salt of Formula (Ia), 1.68 poloxamer 188), mean ± SD, n=3): 104 ± 26 µM·h; Time plasma concentrations maintained above the target trough concentration of 20 nM (dog, SC 6 mg/kg, 125 mg/mL solution (w/w %: 27.51 water, 58.92 PEG 300, 11.48 sodium salt of Formula (Ia), 2.09 poloxamer 188)): at least 14 days; Time plasma concentrations maintained above the target trough concentration of 20 nM (dog, SC 6 mg/kg, 150 mg/mL solution (w/w %: 26.6 water, 56.97 PEG 300, 13.39 Formula (Ia), 0.57 NaOH, 2.49 poloxamer 188)): at least 56 days; Time plasma concentrations maintained above the target trough concentration of 20 nM (dog, SC 6 mg/kg, 300 mg/mL solution (w/w %: 21.97 water, 47.05 PEG 300, 25.21 Formula (Ia), 1.08 NaOH, 4.69 poloxamer 188)): at least 56 days; AUC0-84d (dog, SC 6 mg/kg, 300 mg/mL solution (w/w %: 21.97 water, 47.05 PEG 300, 25.21 Formula (Ia), 1.08 NaOH, 4.69 poloxamer 188), mean ± SD, n=3): 65.4 ± 21.5 µM·h; Time plasma concentrations maintained above the target trough concentration of 20 nM (dog, SC 12 mg/kg, 150 mg/mL solution (w/w %: 27.92 water, 58.04 PEG 300, 13.47 Formula (Ia), 1.1 NaOH)): at least 56 days; AUC0-28d [2]: 137.0 ± 38 µM·h; AUC0-126d [2]: 196 ± 31 µM·h; Time plasma concentrations maintained above the target trough concentration of 20 nM (dog, SC 12 mg/kg, 300 mg/mL solution (w/w %: 9.8 water, 65.0 PEG 300, 25.2 Formula (Ia))): at least 84 days; Time plasma concentrations maintained above the target trough concentration of 20 nM (dog, SC 12 mg/kg, 300 mg/mL solution (w/w %: 23.2 water, 50.0 PEG 300, 25.7 Formula (Ia), 1.1 NaOH)): at least 56 days; Time plasma concentrations maintained above the target trough concentration of 20 nM (dog, SC 12 mg/kg, 400 mg/mL solution in 10% ethanol, 13% water, 77% PEG 200): at least 84 days; concentration at 3 h (male, beagle, dog, plasma, sc, 12 mg/kg, dog #1, 3.0 h, SC 12 mg/kg, 400 mg/mL in 15% water/85% PEG 300): 1.2 nM; concentration at 8 h (male, beagle, dog, plasma, sc, 12 mg/kg, dog #1, 8.0 h, SC 12 mg/kg, 400 mg/mL in 15% water/85% PEG 300): 10.6 nM; concentration at 24 h (male, beagle, dog, plasma, sc, 12 mg/kg, dog #1, 24.0 h, SC 12 mg/kg, 400 mg/mL in 15% water/85% PEG 300): 19.8 nM; concentration at 48 h (male, beagle, dog, plasma, sc, 12 mg/kg, dog #1, 48.0 h, SC 12 mg/kg, 400 mg/mL in 15% water/85% PEG 300): 54.6 nM; concentration at 72 h (male, beagle, dog, plasma, sc, 12 mg/kg, dog #1, 72.0 h, SC 12 mg/kg, 400 mg/mL in 15% water/85% PEG 300): 62.8 nM; concentration at 96 h (male, beagle, dog, plasma, sc, 12 mg/kg, dog #1, 96.0 h, SC 12 mg/kg, 400 mg/mL in 15% water/85% PEG 300): 58.9 nM; concentration at 168 h (male, beagle, dog, plasma, sc, 12 mg/kg, dog #1, 168 h, SC 12 mg/kg, 400 mg/mL in 15% water/85% PEG 300): 71.9 nM
